SMILES strings stand for the structures.

The data set can be described thus: In vitro cytotoxicity with L-6 cells (Alamar Blue). The data set is classed as cell-based. The settings on record: L-6 cells (rat skeletal myoblasts), 70 h + 2 h Alamar Blue; read-out: Cytotoxicity L6 IC50. The method, then: Assays were performed in 96-well microtiter plates, each well containing 100 µl of RPMI 1640 medium supplemented with 1% L-glutamine (200mM) and 10% fetal bovine serum, and 4000 L-6 cells (a primary cell line derived from rat skeletal myoblasts). Serial drug dilutions of eleven 3-fold dilution steps covering a range from 100 to 0.002 µg/ml were prepared. After 70hours of incubation the plates were inspected under an inverted microscope to assure growth of the controls and sterile conditions. 10µl of Alamar Blue was then added to each well and the plates incubated for another 2 hours. Later they were read with a Spectramax Gemini XS microplate fluorometer (Molecular Devices Cooperation, Sunnyvale, CA, USA) using an excitation wave length of 536 nm and an emission wave length of 588 nm. The IC50 values were calculated by linear regression from the sigmoidal dose inhibition curves using SoftmaxPro software (Molecular Devices Cooperation, Sunnyvale, CA, USA). Podophyllotoxin (Sigma P4405) as control.
A general note: The colour change of resazurin is a common sign of viable cells or microbes.
As to `N=C(NO)c1ccc(C(=O)NO)cc1` [Compound 1c], the CC50 at 72 h amounted to 56.1 µg/mL. Same read-out and setting: the same measure for `N=C(NO)c1ccc(NC(=O)NOCc2ccccc2)cc1` [Compound 2b]: 43 µg/mL; for `N=C(NO)c1ccc(NC(=O)NO)cc1` [Compound 2c]: above 100 µg/mL; for `N=C(NO)c1ccc(NC(=S)NOCc2ccccc2)cc1` [Compound 3c]: 57.6 µg/mL. Take `O=C(NO)Nc1ccc(Cl)c(Cl)c1` [Compound 4b]: the CC50 at 72 h was above 100 µg/mL. Still for that read-out and setting: for `O=C(NO)NC1CCCCC1` [Compound 7b] the value was 93 µg/mL; for `Nc1ccc(C(=O)NO)cc1` [Compound 9b], 43.4 µg/mL; for `CCCCONC(=O)c1ccc(NC(=N)N)cc1` [Compound 9d], above 100 µg/mL.

Consider `CC(=O)N(O)c1ccc(C(=N)NO)cc1` [Compound 10c], for which the CC50 at 72 h was 52.2 µg/mL. Regarding `N=C(NO)c1ccc(S(=O)(=O)NO)cc1` [Compound 12b], the CC50 at 72 h is above 100 µg/mL. The same measure, in the same setting: for `NC(=O)c1ccc(S(=O)(=O)NO)cc1` [Compound 12c] the value was above 100 µg/mL; for `N=C(N)c1ccc(S(=O)(=O)NO)cc1` [Compound 12d], above 100 µg/mL. Still for that read-out and setting: for `N=C(N)c1ccc(N)cc1` [Compound 13c] the value was 42.9 µg/mL; for `CC(C)(C)C(=O)N(O)c1ccc(C#N)cc1` [Compound 15a], 33.5 µg/mL; for `Cc1ccc(S(=O)(=O)NC(C#N)C#N)cc1` [Compound 16a], above 100 µg/mL. Take `N#Cc1nc(-c2ccco2)c[n+]([O-])c1N` [Compound 16b]: the CC50 at 72 h is 61.1 µg/mL. Turning to `Nc1nc2ncc(C(=O)O)nc2c(=O)[nH]1` [Compound P6CAH], the CC50 at 72 h is above 100 µg/mL. On to `COc1cc([C@@H]2c3cc4c(cc3[C@H](O)[C@H]3COC(=O)[C@H]23)OCO4)cc(OC)c1OC` [Podophyllotoxin, reference compound], for which the concentration for half-maximal inhibition (IC50) – broadly, the point on the concentration scale where inhibition reaches its midpoint – at 72 h amounted to 0.006 µg/mL.

Source of the values: patent EP4070856A1, “ORGANIC COMPOUNDS AND USES THEREOF” (Adebiyi, Ezekiel, priority 2021, dated 2022).
